From patent publication US20250195511A1, “INDAZOLE DERIVATIVES USEFUL AS INHIBITORS OF NOD-LIKE RECEPTOR PROTEIN 3” (Merck Sharp & Dohme LLC, priority 2023, published 2025)

Tested on: NLRP3 inflammasome
Test: NLRP3 inflammasome activation: ASC-SPECK formation in gramicidin-stimulated THP-1 cells
Format: cell-based
Conditions: PMA-treated human monocytic THP-1 cells, compound 1 h before 12.5 μg/ml gramicidin, 3-hour treatment
Method in brief: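 Undifferentiated human THP-1 cells primed overnight with 10 ng/ml PMA, then given compounds 1 h before 12.5 μg/ml gramicidin for 3 h at 37° C in RPMI with 0.01% BSA. Fixed cells immunostained for ASC with DRAQ5 nuclear counterstain; DRAQ5-positive cells with ASC specks counted by high-content imaging; EC50 from curve fitting.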

[1] = Homo sapiens, THP-1, inhibition of ASC SPECK formation
[2] = inhibition of ASC SPECK formation

Row | Structure (SMILES) | EC50 [1] [nM] | EC50 [2] [nM]
1 | Cc1cc(C(F)(F)F)cc(O)c1-c1cnc2cn([C@H]3COC[C@@H]3O)nc2n1 [Example 32, (3R,4S)-4-[6-[2-hydroxy-6-methyl-4-(trifluoromethyl)phenyl]pyrazolo[3,4-b]pyrazin-2-yl]tetrahydrofuran-3-ol] | 34 | –
2 | Cc1cc(C(F)(F)F)cc(O)c1-c1cnc2cn(C3CCC(=O)N(C(C)C)C3)nc2n1 (single isomer, unassigned) [Example 60, (R or S)-5-(6-(2-hydroxy-6-methyl-4-(trifluoromethyl)phenyl)-2H-pyrazolo[3,4-b]pyrazin-2-yl)-1-isopropylpiperidin-2-one] | – | 7
3 | Cc1cc(C(F)(F)F)cc(O)c1-c1cnc2cn(C34CC(C(F)F)(C3)C4)nc2n1 [Example 39, 2-[2-[3-(difluoromethyl)-1-bicyclo[1.1.1]pentanyl]pyrazolo[3,4-b]pyrazin-6-yl]-3-methyl-5-(trifluoromethyl)phenol] | 90 | –
4 | Cc1cc(C(F)(F)F)cc(O)c1-c1cnc2c(C(C)O)n(C3CCC(=O)N(C(C)C)C3)nc2n1 (single isomer, unassigned) [Example 117, (S or R)-5-(6-(2-hydroxy-6-methyl-4-(trifluoromethyl)phenyl)-3-((S or R)-1-hydroxyethyl)-2H-pyrazolo[3,4-b]pyrazin-2-yl)-1-isopropylpiperidin-2-one] | – | 29
5 | Cc1cc(C(F)(F)F)cc(O)c1-c1cnc2cn(C34COC(C3)C4)nc2n1 [Example 17, 2-(2-(2-oxabicyclo[2.1.1]hexan-4-yl)-2H-pyrazolo[3,4-b]pyrazin-6-yl)-3-methyl-5-(trifluoromethyl)phenol] | 55 | –
6 | CCOCOc1cc(C(F)(F)F)cc(C)c1-c1cnc2c([C@@H](C)O)n(C[C@H]3CC(=O)N(C4CC4)C3)nc2n1 (single isomer, unassigned) [Example 114, (S or R)-1-cyclopropyl-4-((6-(2-(ethoxymethoxy)-6-methyl-4-(trifluoromethyl)phenyl)-3-((R or S)-1-hydroxyethyl)-2H-pyrazolo[3,4-b]pyrazin-2-yl)methyl)pyrrolidin-2-one] | 57 | –
7 | CCN1CC(Cn2cc3ncc(-c4c(C)cc(C(F)(F)F)cc4O)nc3n2)CC1=O (single isomer, unassigned) [Example 67, (S or R)-1-ethyl-4-((6-(2-hydroxy-6-methyl-4-(trifluoromethyl)phenyl)-2H-pyrazolo[3,4-b]pyrazin-2-yl)methyl)pyrrolidin-2-one] | – | 7
8 | Cc1cc(C(F)(F)F)cc(O)c1-c1cnc2cn(C3(C)CC(F)C3)nc2n1 (single isomer, unassigned) [Example 74, 2-(2-((1R,3R or 1S,3S)-3-fluoro-1-methylcyclobutyl)-2H-pyrazolo[3,4-b]pyrazin-6-yl)-3-methyl-5-(trifluoromethyl)phenol] | – | 66
9 | Cc1cc(C(F)(F)F)cc(O)c1-c1cnc2cn([C@H]3C[C@H]4C[C@@H]3CO4)nc2n1 (single isomer, unassigned) [Example 4, 2-(2-((1R,4S,5S or 1S,4R,5R)-2-oxabicyclo[2.2.1]heptan-5-yl)-2H-pyrazolo[3,4-b]pyrazin-6-yl)-3-methyl-5-(trifluoromethyl)phenol] | – | 34
10 | Cc1cc(C(F)(F)F)cc(O)c1-c1cnc2c(C)n(C3CCC(=O)NC3)nc2n1 (single isomer, unassigned) [Example 108, (R or S)-5-(6-(2-hydroxy-6-methyl-4-(trifluoromethyl)phenyl)-3-methyl-2H-pyrazolo[3,4-b]pyrazin-2-yl)piperidin-2-one] | – | 66
11 | Cc1cc(C(F)(F)F)cc(O)c1-c1cnc2c(C)n(C3CCC(=O)N(C)C3)nc2n1 (single isomer, unassigned) [Example 106, (S or R)-5-(6-(2-hydroxy-6-methyl-4-(trifluoromethyl)phenyl)-3-methyl-2H-pyrazolo[3,4-b]pyrazin-2-yl)-1-methylpiperidin-2-one] | 191 | –
12 | Cc1cc(C(F)(F)F)cc(O)c1-c1cnc2cn(CC3CC(=O)N(C(C)C)C3)nc2n1 (single isomer, unassigned) [Example 81, (S or R)-4-((6-(2-hydroxy-6-methyl-4-(trifluoromethyl)phenyl)-2H-pyrazolo[3,4-b]pyrazin-2-yl)methyl)-1-isopropylpyrrolidin-2-one] | – | 437
13 | Cc1cc(C(F)(F)F)cc(O)c1-c1cnc2cn(C3CCc4nnn(C)c4C3)nc2n1 (single isomer, unassigned) [Example 68, (R or S)-3-methyl-2-(2-(1-methyl-4,5,6,7-tetrahydro-1H-benzo[d][1,2,3]triazol-6-yl)-2H-pyrazolo[3,4-b]pyrazin-6-yl)-5-(trifluoromethyl)phenol] | – | 40
14 | Cc1cc(C(F)(F)F)cc(O)c1-c1cnc2cn(CC3CC(=O)N(C(C)C)C3)nc2n1 (single isomer, unassigned) [Example 80, (R or S)-4-((6-(2-hydroxy-6-methyl-4-(trifluoromethyl)phenyl)-2H-pyrazolo[3,4-b]pyrazin-2-yl)methyl)-1-isopropylpyrrolidin-2-one] | – | 8
15 | Cc1cc(C(F)(F)F)cc(O)c1-c1cnc2cn([C@H]3C[C@H](F)C3)nc2n1 [Example 16, 2-(2-((1R,3R)-3-fluorocyclobutyl)-2H-pyrazolo[3,4-b]pyrazin-6-yl)-3-methyl-5-(trifluoromethyl)phenol] | 25 | –
